System: Canines
Test: Canine ischemia/reperfusion (I/R) protocol, 3 hours no-flow LAD occlusion then reperfusion, MRI at week 8
Type: in vivo
Description: Canines (n=9) underwent left thoracotomy at the 4th intercostal space and a hydraulic occluder was secured around the left-anterior descending coronary artery after the first principal diagonal. Subsequently a Doppler flow probe was affixed distal to the hydraulic occluder and animals were allowed to recover for 7 days. Following recovery, animals were subjected to ischemia/reperfusion (I/R) protocol and studied with magnetic resonance imaging. The ischemia protocol consisted of inflicting no-flow ischemia by inflating the hydraulic occlude (confirmed by the Doppler flow velocity) for 3 hours. Subsequently all animals were reperfused by deflation of the hydraulic occluder.

[1] = 100% O2 versus room air during reperfusion, week 8

O=O [100% O2, oxygen]
chronic scar size larger versus animals breathing room air during reperfusion [1]: approximately 25%
left ventricular ejection fraction (LVEF) reduced versus animals breathing room air during reperfusion [1]: 12%
LVEF at week 8 post MI (gas breathed during reperfusion, 3.0 T MRI, week 8 post I/R injury, left-ventricular ejection fraction): 39.7 +/− 4.9
Scar Volume at week 8 post MI (% LV) (gas breathed during reperfusion, 3.0 T MRI, week 8 post I/R injury, scar volume as percentage of left ventricular volume): 15.0 +/− 3.8 % LV

Source: patent publication US10471094B2, “Methods for reducing ischemia-reperfusion injury via targeted control of blood gases” (Cedars-Sinai Medical Center, priority 2013, dated 2019)
